According to patent publication US8628864B2, “Indolo[3,2,1-jk]carbazole compound and organic light-emitting device containing the same” (Canon Kabushiki Kaisha, priority 2010, dated 2014):

Columns and labels:
Format in all cases: physicochemical
[1] = Solubility: amount of chlorobenzene required to dissolve 10 mg of compound; conditions: 10 mg compound
Method: The amount of chlorobenzene required to dissolve 10 mg of the exemplary compound C-1 was determined. As a result, the amount of chlorobenzene required to dissolve 10 mg of the exemplary compound C-1 was 1 ml or less.

[2] = Color of evaporated film on glass substrate left to stand in the air; conditions: in the air at room temperature, approximately two hours
[3] = Ionization potential of evaporated thin film, photoelectron spectrometer AC-3
Method: The ionization potential of the evaporated thin film used in the measurement of the energy gap described above was measured with a photoelectron spectrometer AC-3 (manufactured by Riken Keiki Co., Ltd.). The ionization potential of the exemplary compound C-1 was 6.01 eV.

Amount of chlorobenzene required to dissolve 10 mg of compound [1]	Color of film 2 h after film formation [2]	Ionization potential [3]	Compound
50 or more ml	pale yellowish brown	5.83 eV	c1ccc2c(c1)c1cc(-c3cc(-c4cc5c6ccccc6n6c7ccccc7c(c4)c56)cc(-c4cc5c6ccccc6n6c7ccccc7c(c4)c56)c3)cc3c4ccccc4n2c13 [FH-01]
10 mL	pale yellowish brown	5.72 eV	c1ccc2c(c1)c1cc(-c3ccc(-c4cc5c6ccccc6n6c7ccccc7c(c4)c56)cc3)cc3c4ccccc4n2c13 [FH-02]
